Test results from patent US20110251220A1, “Pharmaceutical compositions comprising gamma secretase modulators” (priority 2008, published 2011).

Tests used:
[1] = system: OPM-2 cells; test: Proliferation/viability assay (CellTiter-Glo), OPM-2; format: cell-based, human; settings: OPM-2, 48 h treatment
Description: Human MM cell lines used were as follows: NCI-H929, OPM-2, LP-1, RPMI-8226, U266 (DSMZ, Braunschweig, Germany). Cell lines were cultured in RPMI 1640 medium (Biochrom, Berlin, Germany) supplemented with 10% heat-inactivated fetal calf serum (FCS, Gibco, Karlsruhe, Germany), 1 mM sodium pyruvate and 100 units/ml penicillin and 100 μg/ml streptomycin (Gibco). Human osteoclasts were obtained as described in the reference of Zavrski I, Krebbel H, Wildemann B, et al. Proteasome inhibitors abrogate osteoclast differentiation and osteoclast function. Biochem Biophys Res Commun. 2005; 333:200-205. Briefly, peripheral blood mononuclear cells (PBMC) were isolated from whole blood of healthy volunteers, using a Ficoll-Hypaque density gradient. The adherent fraction of the isolated mononuclear cells was cultured for 21 days in MEM medium (Sigma-Aldrich Chemie, Taufkirchen, Germany) supplemented with 10% FCS, 100 U/ml penicillin, 100 μg/ml streptomycin, 50 ng/ml M-CSF, and 25 ng/ml RANKL (osteoclastogenic medium), before coculture experiments and treatment with the inventive compounds started. […]
For assaying proliferation/viability of cells CellTiter-Glo Luminescent Cell Viability Assay (Promega, Mannheim, Germany) was used. In this assay the number of viable cells at a given time point is determined by quantification of ATP present, which serves as a measure of metabolically active cells. […]

[2] = system: U266 cells; test: Cell cycle analysis (propidium iodide), U266; format: cell-based, human
Description: The compound according to example 1, hereinafter referred to as GSI15, (compound RH02015SC, Maybridge, Acros Organics, Geel, Belgium) was freshly dissolved as 26 mM stock solution in Dimethylsulfoxide (DMSO). Multiple myeloma therapeutics used were melphalan (marketed as Alkeran®, GlaxoSmithKline, Munich, Germany) and bortezomib (marketed as Velcade®, Janssen-Cilag, Neuss, Germany). Melphalan was freshly dissolved at 10 mg/ml in 0.9% NaCl-solution. Bortezomib was freshly dissolved at 100 ng/ml in 0.9% NaCl solution. Gamma Secretase Inhibitor (GSI) treatment for apoptosis assessment by AnnexinV/PI staining, cell cycle analysis and coculture experiments was performed in 6-well plates. GSI15 stock solution was added directly to the cell suspension. GSI treatment for assaying proliferation was performed in 96-well plates. […]
For cell cycle analysis 2×10^5 cells were spun down, medium was aspirated and cells washed with PBS. […] After 10 minutes incubation in the dark at room temperature, cells were analyzed by flow cytometry. The amount of apoptotic cells was determined by AnnexinV/propidium iodide staining using Human AnnexinV-FITC Kit (Bender Medsystems, Vienna, Austria), according to manufacturer's protocol. […] Cells were then spun down again, resuspended in binding buffer containing PI and analyzed by flow cytometry.

Structure (SMILES): CC(C)c1ccc(S(=O)(=O)Nc2cccnc2Oc2ccc(Cl)cc2)cc1 [Example 1, N-(2-(4-chlorophenoxy)pyridin-3-yl)-4-isopropylbenzenesulfonamide]
- concentration of maximum effect on proliferation [1]: 60 µM
- proliferation [1]: dose-dependent reduction of proliferation
- sub-G1 fraction / cell cycle [2]: no change was detected
